Counter-ions that a name gives are not always drawn.

The target of this assay is T1, MAPKAPK2 enzyme (HIS-MK2, Invitrogen PV4019) (Homo sapiens, UniProt P49137).
T1 construct: His; purchased Invitrogen PV4019
T1 sequence (P49137 whole entry): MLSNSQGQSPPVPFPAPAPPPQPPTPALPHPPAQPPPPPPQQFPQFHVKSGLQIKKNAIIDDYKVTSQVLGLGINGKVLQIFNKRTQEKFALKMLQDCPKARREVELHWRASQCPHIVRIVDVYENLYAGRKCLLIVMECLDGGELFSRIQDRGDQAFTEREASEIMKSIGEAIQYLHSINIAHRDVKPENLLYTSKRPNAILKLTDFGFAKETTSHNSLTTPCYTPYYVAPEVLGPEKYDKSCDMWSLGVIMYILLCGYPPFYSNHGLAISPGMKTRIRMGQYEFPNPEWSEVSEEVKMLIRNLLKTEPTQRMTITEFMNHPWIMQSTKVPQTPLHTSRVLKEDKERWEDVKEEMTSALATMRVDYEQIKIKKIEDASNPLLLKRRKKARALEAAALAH
Briefly: Alternative MAPKAPK2 assay (Caliper microfluidic mobility shift, HSP27-peptide). It is filed as biochemical. Particulars: HIS-MK2 0.013 nM, ATP 10 μM, 60 min at 30° C.
Turning to `O=C1NC2(CC2)C2(CNC2)c2[nH]c3c(c21)CCc1cnc(-c2cccc(F)c2)nc1-3` [Example 212, 2-[3-(1-Amino-cyclopropyl)-azetidin-3-yl]-8-(3-fluoro-phenyl)-4,5-dihydro-1H-1,7,9-triaza-cyclopenta[a]naphthalene-3-carboxylic acid lactam hydrochloride], the 50% inhibitory concentration (IC50) came to 5 nM. To `CN1CC2(C1)c1[nH]c3c(c1C(=O)NC21CC1)CCc1cnc(-c2cccc(F)c2)nc1-3` [Example 213, 2-[3-(1-Amino-cyclopropyl)-1-methyl-azetidin-3-yl]-8-(3-fluoro-phenyl)-4,5-dihydro-1H-1,7,9-triaza-cyclopenta[a]naphthalene-3-carboxylic acid lactam] belongs 19 nM; to `COc1ccc(-c2ncc3c(n2)-c2[nH]c4c(c2CC3)C(=O)NC2(CC2)C42CNC2)cc1` [Example 214, 2-[3-(1-Amino-cyclopropyl)-azetidin-3-yl]-8-(4-methoxy-phenyl)-4,5-dihydro-1H-1,7,9-triaza-cyclopenta[a]naphthalene-3-carboxylic acid lactam hydrochloride], 6 nM; to `COc1ccc(-c2ncc3c(n2)-c2[nH]c4c(c2CC3)C(=O)NC2(CC2)C42CN(C)C2)cc1` [Example 215, 2-[3-(1-Amino-cyclopropyl)-1-methyl-azetidin-3-yl]-8-(4-methoxy-phenyl)-4,5-dihydro-1H-1,7,9-triaza-cyclopenta[a]naphthalene-3-carboxylic acid lactam], 18 nM. As to `O=C1NC2(CC2)Cc2[nH]c3c(c21)CCc1cnc(-c2ccc(N4CCNCC4)cc2)cc1-3` [Example 216, 2-(1-Amino-cyclopropylmethyl)-8-(4-piperazin-1-yl-phenyl)-4,5-dihydro-1H-pyrrolo[2,3-f]isoquinoline-3-carboxylic acid lactam hydrochloride], the concentration for half-maximal inhibition (IC50) turned out to be 18 nM.

As to `CN1CCN(c2ccc(-c3cc4c(cn3)CCc3c-4[nH]c4c3C(=O)NC3(CC3)C4)cc2)CC1` [Example 217, 2-(1-Amino-cyclopropylmethyl)-8-(4-methyl-piperazin-1-yl-phenyl)-4,5-dihydro-1H-pyrrolo[2,3-f]isoquinoline-3-carboxylic acid lactam], the half-inhibitory concentration (IC50) turned out to be 93 nM. Under `COc1ccc(-c2ncc3c(n2)-c2c(c4c(n2C)C2(CNC2)CNC4=O)CC3)cc1` [Example 218, 2-(3-Aminomethyl-azetidin-3-yl)-8-(4-methoxy-phenyl)-1-methyl-4,5-dihydro-1H-1,7,9-triaza-cyclopenta[a]naphthalene-3-carboxylic acid lactam hydrochloride] stands 30 nM. To `COc1ccc(-c2ncc3c(n2)-c2c(c4c(n2C)C2(CNC4=O)CN(C)C2)CC3)cc1` [Example 219, 2-(3-Aminomethyl-1-methyl-azetidin-3-yl)-8-(4-methoxy-phenyl)-1-methyl-4,5-dihydro-1H-1,7,9-triaza-cyclopenta[a]naphthalene-3-carboxylic acid lactam] belongs 20 nM. Under `O=C1NC2(CC2)C2(CC2)c2[nH]c3c(c21)CCc1cnc(-c2ccc(N4CCNCC4)cc2)cc1-3` [Example 220, 2-(1′-Amino-bicyclopropyl-1-yl)-8-(4-piperazin-1-yl-phenyl)-4,5-dihydro-1H-pyrrolo[2,3-f]isoquinoline-3-carboxylic acid lactam hydrochloride] stands 26 nM; under `CN1CCN(c2ccc(-c3cc4c(cn3)CCc3c-4[nH]c4c3C(=O)NC3(CC3)C43CC3)cc2)CC1` [Example 221, 2-(1′-Amino-bicyclopropyl-1-yl)-8-[4-(4-methyl-piperazin-1-yl)-phenyl]-4,5-dihydro-1H-pyrrolo[2,3-f]isoquinoline-3-carboxylic acid lactam], 29 nM; under `CN1CC2(C1)c1[nH]c3c(c1C(=O)NC21CC1)CCc1cnc(-c2ccc(C(F)(F)F)nc2)cc1-3` [Example 222, 2-[3-(1-Amino-cyclopropyl)-1-methyl-azetidin-3-yl]-8-(6-trifluoromethyl-pyridin-3-yl)-4,5-dihydro-1H-pyrrolo[2,3-f]isoquinoline-3-carboxylic acid lactam], less than 3 nM.

The values above are taken from patent US7838674B2, “Tetracyclic lactame derivatives” (Novartis AG, priority 2007, dated 2010).
